{"source": "patent US6642237B1", "about": "“Gamma-hydroxy-2-(fluoroalkylaminocarbonyl)-1-piperazinepentanamides and uses thereof” (Merck & Co., Inc., priority 1999, dated 2003)", "key": {"HIV": {"test_system": "HIV", "details": "HIV-infected patients; in combination with nucleoside reverse transcriptase inhibitors; cited from earlier work"}, "[1]": {"test_system": "HIV-1 viral constructs Q60, K-60, and V-18 in MT-4 T-lymphoid cells", "assay_type": "cell-based", "details": "concentration reducing spread of infection by at least 95%; MT-4 cells, 4 days postinfection", "protocol": "Inhibition of the spread of HIV in cell culture was measured according to Nunberg et al., J. Virol. […] In this assay, MT-4 T-lymphoid cells were infected with HIV-1 (wild-type, unless otherwise indicated) by using a predetermined inoculum, and cultures were incubated for 24 h. At this time, ≦1% of the cells were positive by indirect immunofluorescence. Cells were then extensively washed and distributed into 96-well culture dishes. Serial twofold dilutions of inhibitor were added to the wells, and cultures were continued for 3 additional days. At 4 days postinfection, 100% of the cells in control cultures were infected. HIV-1 p24 accumulation was directly correlated with virus spread. The cell culture inhibitory concentration was defined as the inhibitor concentration in nanomoles/liter which reduced the spread of infection by at least 95%, or CIC95."}}}
{"compound": "CC(C)(C)NC(=O)[C@@H]1CN(Cc2cccnc2)CCN1C[C@@H](O)C[C@@H](Cc1ccccc1)C(=O)N[C@H]1c2ccccc2C[C@H]1O", "note": "[indinavir]", "values": [{"measurement": "reducing HIV viral loads and increasing CD4 cell counts", "setting": "HIV", "value": "highly effective"}, {"measurement": "CIC95 against the viral constructs Q60, K-60, and V-18", "setting": "[1]", "value": "greater than 1000 nM"}]}
